These are literature values, as cited in US20040042990A1, “Composition containing oxidation-sensitive hydrophilic active principle and maleic anhydride copolymer, and use thereof” (L'OREAL, Paris, France, priority 2002, published 2004).

Molecules are shown by their SMILES.

The test system of this data set is reconstructed skin.

Regarding `O=C1O[C@H]([C@@H](O)CO)C([O-])=C1OP(=O)([O-])[O-].O=C1O[C@H]([C@@H](O)CO)C([O-])=C1OP(=O)([O-])[O-].[Mg+2].[Mg+2].[Mg+2]` [magnesium ascorbyl phosphate], the “number of fibroblasts in the lattice” value (reconstructed skin culture medium) was “significant increase”. For the same compound, for the setting “reconstructed skin, in particular at the dermoepidermal junction”, the “synthesis of proteins of the extracellular matrix (collagens IV and VII, laminin)” value is listed as “significant stimulation”.
